Measured values published in patent publication US7264314B2, “Adrenocorticotropic hormone analogs and related methods” (priority 2004, dated 2007).

Tests used:
[1] = test system: serum corticosterone in dexamethasone-suppressed mice; test: in vivo Serum Corticosteroid Induction Assay; parameters: species or system FVB/N mice; details: for Percent reduction in serum corticosteroid: compared to unmodified mACTH(1–24), 1 μg s.c., blood one hour after administration
Experimental: An in vivo Serum Corticosteroid Induction Assay measures the level of corticosteroid or corticosterone in the blood stream of a subject. More specifically, the in vivo Serum Corticosteroid Induction Assay can include the following steps: first, an agent to suppress endogenous ACTH production was administered to a mouse subject, such as an intraperitoneal injection of dexamethasone; second, after waiting a suitable period of time for suppression of endogenous ACTH production (e.g., 1.5–2.0 hours), a test compound can be administered to the mouse by a suitable method, such as intraperitoneal or subcutaneous injection; and third, after waiting a suitable period of time (e.g., 1 hour) for action of the injected test compound, a blood sample can be taken from the subject and the level of serum corticosterone can be determined by a suitable method, such as a competitive radioimmunoassay using ^125I RIA kit (ICN, Costa Mesa, Calif.). Example 1 describes a murine in vivo Serum Corticosteroid Induction Assay in detail.
The corticosteroid or corticosterone secretion induced in vivo by an ACTH analog compound was compared to the level of corticosteroid secretion produced by an unmodified ACTH compound by measuring blood serum corticosteroid after administering either the ACTH or ACTH analog as test compounds. […] ACTH analog compositions with decreased function were identified by measuring corticosterone levels using standard radioimmunoassay (RIA) analysis on blood samples collected one hour after administering the mACTH(1–24) or ACTH analog compound to dexamethasone-suppressed mice. In FIG. 1, the potency of various ACTH analog peptides is expressed as per cent induction of corticosterone, with mouse ACTH being 100%. […] The percent of corticosterone induction 12 of ACTH analog Compounds in Samples 2–10 are shown as a percentage of the concentration of serum corticosterone 20 measured for unmodified mACTH(1–24) in the in vivo Serum Corticosteroid Adrenal Induction Assay. The structural modifications and measured percentage reduction in serum measured for Samples 2–10 in FIG. 1 are shown in Table 3 below.
The in vivo Serum Corticosteroid Induction Assay was performed according the following method. First, two to three month-old male FVB/N mice from our colony, five per group, were injected intraperitoneally with dexamethasone (0.4 mg/0.1 ml PBS per mouse; Sigma, St. Louis, Mo.) to suppress their endogenous ACTH production. See Hajos, G T et al., “Studies of the potency of polypeptides with ACTH action by a new method based on continuous measurement of plasma corticosterone,” Steroids Lipids Res 3:225–228 (1972), Costa, J L, et al., “Mutational analysis of evolutionarily conserved ACTH residues,” Gen Comp Endocrinol, 136:12–16 (2004), and Karpac, J, et al., “Development, Maintenance, and Function of the Adrenal Gland in Early Postnatal Pro-opiomelanocortin Null Mutant Mice,” Endocrinology (2005), published online ahead of print Feb. 24, 2005, all of which are incorporated herein by reference.
Second, ninety to one hundred twenty minutes later, the dexamethasone-suppressed mice were injected subcutaneously between the shoulder blades with either unmodified mACTH(1–24) or one of several ACTH analog peptide compounds (1 μg/0.1 mL PBS/0.5% BSA), or with vehicle alone (control) (0.1 mL PBS/0.5% BSA). The following ACTH analog peptide compounds were administered to separate mice: 1: murine ACTH1–24; 2: V26F,E30K; 3: P19W,K21E,Y23R; 4: E30K,P36R; 5: ALA19–24; 6: V26F,P36R; 7: P19W, K21E; 8: P19W,K21A,delY23; 9: P19W,K21A; 10: KRRP16-19RMW (AT814) (SEQ ID NO:20).
Third, one hour later, blood was collected within less than 1 minute from a small incision in the tail, and serum was flash-frozen and stored at −80° C. until assayed. Serum corticosterone was determined by competitive radioimmunoassay (^125I RIA kit; ICN, Costa Mesa, Calif.) according to the manufacturer's recommendations. One microliter of serum was used per assay sample. […]

[2] = test system: corticosterone production by explanted mouse adrenal halves; test: in vitro Serum-free Adrenal Inhibition Assay; format: cell-based; details: in vivo by Example 1, in vitro by Example 4
Experimental: A series of separate in vitro Serum-Free Adrenal Corticosteroid Inhibition Assay were performed to identify ACTH analogs that inhibit ACTH-induced adrenal hormone production in vitro. The concentration of corticosterone was measured according to the procedure of Example 4 in a serum-free culture medium containing explanted adrenal membrane and unmodified ACTH, AT814 ACTH analog (SEQ ID NO:20), or a combination of ACTH and AT814 at 100 ng/mL each. […] Corticosterone levels were taken at 2.0 hours after the adrenal membrane was placed in the serum free M199 medium, and each corticosterone level in Table 5 is an average of five samples.
The in vitro Serum-free Adrenal Inhibition Assay was performed according the following method. First, adrenals were removed from mice, dissected free of fat, and cut in half. See Costa, J L, et al., “Mutational analysis of evolutionarily conserved ACTH residues,” Gen Comp Endocrinol. 136:12–16 (2004); and Weber, M M, et al., “Postnatal overexpression of insulin-like growth factor II in transgenic mice is associated with adrenocortical hyperplasia and enhanced steroidogenesis,” Endocrinology 140:1537–1543 (1999), incorporated herein by reference.
Second, each adrenal half was placed into an individual well of a 4-well dish, one dish per mouse. Adrenal halves were incubated at 5% CO2, 37° C., in 0.5 ml serum-free medium (M199; Invitrogen) for 30 minutes to equilibrate.
Third, medium was removed and replaced by 0.5 ml M199 containing ACTH, AT814, or both, at 100 ng/ml each; controls had no peptides added.
Fourth, after 2 hours of incubation, the medium was removed, pooled for all four halves from each mouse, and assayed by corticosterone using standard RIA methods. corticosterone was determined by competitive radioimmunoassay (^125I RIA kit; ICN, Costa Mesa, Calif.) according to the manufacturer's recommendations. One microliter of serum was used per assay sample. Samples were run in duplicates.

| Substance | Percent reduction in serum corticosteroid [1] [%] | other results |
| --- | --- | --- |
| (P19W, K21A)mACTH (SYSMEHFRWGKPVGKKRRWVAVYPNVAENESAEAFPLEF; Corticotropin; UniProt P01193 124-162, looked up, variant P19W K21A) [Sample 9] | 83.4 | – |
| (P19W, K21A, delY23)mACTH (SYSMEHFRWGKPVGKKRRWVAVPNVAENESAEAFPLEF; Corticotropin; UniProt P01193 124-162, looked up, variant P19W K21A Y23*) [Sample 8] | 76.0 | – |
| (P19W, K21E)mACTH (SYSMEHFRWGKPVGKKRRWVEVYPNVAENESAEAFPLEF; Corticotropin; UniProt P01193 124-162, looked up, variant P19W K21E) [Sample 7] | 61.1 | – |
| (V26F, E30K)mACTH (SYSMEHFRWGKPVGKKRRPVKVYPNFAENKSAEAFPLEF; Corticotropin; UniProt P01193 124-162, looked up, variant V26F E30K) [Sample 2] | 18.3 | – |
| (V26F, P36R)mACTH (SYSMEHFRWGKPVGKKRRPVKVYPNFAENESAEAFRLEF; Corticotropin; UniProt P01193 124-162, looked up, variant V26F P36R) [Sample 6] | 59.3 | – |
| (PVKVYP19-24AAAAA)mACTH [Sample 5] | 51 | in vivo activity in excess of the in vitro activity of unmodified mACTH (FIG. 5) ([1]; method of Example 1): about 50%; in vivo activity, % corticosterone induction relative to mACTH(1–24) (FIG. 5) ([1]; method of Example 1): greater relative to both mACTH and to other ACTH analogs; in vitro activity compared with in vivo activity (FIG. 5) [2]: increased serum half life measured in vivo |
| (E30K, P36R)mACTH (SYSMEHFRWGKPVGKKRRPVKVYPNVAENKSAEAFRLEF; Corticotropin; UniProt P01193 124-162, looked up, variant E30K P36R) [Sample 4] | 41.5 | – |
| (P19W, K21E, Y23R)mACTH (SYSMEHFRWGKPVGKKRRWVEVRPNVAENESAEAFPLEF; Corticotropin; UniProt P01193 124-162, looked up, variant P19W K21E Y23R) [Sample 3] | 36.5 | – |
